Experimental data from article PMC11204760, “New Cyclic Pentapeptides from the Mangrove-Derived Aspergillus fumigatus GXIMD 03099” (Marine Drugs, 2024).
≈ marks a conversion by molar mass, not a printed value. Where a SMILES comes first, the peptide text is derived from it. [ ]: non-standard residue; d: D form. dNMeF = CN[C@H](Cc1ccccc1)C(=O)O; Pip = O=C(O)[C@@H]1CCCCN1; 2Abz = Nc1ccccc1C(=O)O; Abu = CC[C@H](N)C(=O)O

Legend:
[1] = cited from earlier work
Text: (§1) Cyclic pentapeptides, a subclass of cyclic peptides, are usually constructed by five amino acid residues. To date, about 60 cyclic pentapeptides have been characterized. Among them, avellanins A–C were exclusively found in Hamigera avellanea, Hamigera ingelheimensis, and Aspergillus petrakii, respectively. […] During our continuing efforts to identify new bioactive metabolites from mangrove-derived fungi [[20],[21],[ ...

[2] = test system: Vibrio harveyi (ATCC 14126); assay type: cell-based; conditions: V. harveyi ATCC 14126, microplate assay; chloromycetin positive control
Protocol: Antibacterial activity was determined against nine pathogenic bacteria, including six Gram-positive bacteria—Methicillin-resistant Staphylococcus aureus (ATCC 43300), […], Staphylococcus albus (ATCC 8799), Staphylococcus aureus (ATCC 6538), Bacillus subtilis (ATCC 21332), and […] —and three Gram-negative bacteria—Vibrio parahaemolyticus (ATCC 17802), V. alginolyticus (ATCC 17749), and V. harveyi (ATCC 14126)—by the microplate assay method. Chloromycetin was used as the positive control.

[3] = test system: newly hatched larvae of Culex quinquefasciatus; experiment: Insecticidal activity against newly hatched Culex quinquefasciatus larvae; assay type: in vivo; conditions: 25 ± 1 °C, 80% relative humidity, dead larvae recorded on 2nd, 4th, 6th and 8th days, two sets of replicates, azadirachtin positive control
Protocol: The insecticidal activity against Culex quinquefasciatus larvae was evaluated according to methods reported in the literature. Newly hatched larvae were housed at 25 ± 1 °C and 80% relative humidity. Two sets of replicates were set up with dimethyl sulfoxide as a negative control, azadirachtin as a positive control, and artificial feed as a blank control. The number of dead larvae was recorded on 2nd, 4th, 6th, and 8th days after treatment.

quorum-sensing = conditions: cited from earlier work
Text: as §1

avellanin B [compound 6]
effect on activity of antineoplastic drugs [1]: improves the activity of antineoplastic drugs

L-Pro-Ant-L-Ile-D-Ala-N-Me-D-Phe (head to tail) [compound 5, avellanin A, known cyclic pentapeptide isolated from the fungus]
effect on blood pressure [1]: elevates blood pressure

CC[C@@H]1NC(=O)[C@@H](C)NC(=O)[C@@H](Cc2ccccc2)N(C)C(=O)[C@@H]2CCCN2C(=O)c2ccccc2NC1=O [compound 4, avellanin G] (cyclo(P[dNMeF][dA][Abu][2Abz]))
MIC [2]: 5.85 µM (≈ 3.12 µg/mL)

CC[C@H](C)[C@@H]1NC(=O)[C@@H](C)NC(=O)[C@@H](Cc2ccccc2)N(C)C(=O)[C@@H]2CCCCN2C(=O)c2ccccc2NC1=O [compound 2, avellanin E] (cyclo([Pip][dNMeF][dA]I[2Abz]))
LC50, insecticidal activity [3]: 86.6 µM

avellanin C
quorum-sensing inhibitory activity (quorum-sensing): exhibits quorum-sensing inhibitory activity
